Results on three compounds are retold here after US9949972B2, “Combinations of histone deacetylase inhibitors and immunomodulatory drugs” (Acetylon Pharmaceuticals, Inc., priority 2013, dated 2018).

For one assay, the target named is T1, HDAC6 (Homo sapiens, UniProt Q9UBN7).
T1 construct: purchased BPS Biosciences
T1 sequence (Q9UBN7 1-1215): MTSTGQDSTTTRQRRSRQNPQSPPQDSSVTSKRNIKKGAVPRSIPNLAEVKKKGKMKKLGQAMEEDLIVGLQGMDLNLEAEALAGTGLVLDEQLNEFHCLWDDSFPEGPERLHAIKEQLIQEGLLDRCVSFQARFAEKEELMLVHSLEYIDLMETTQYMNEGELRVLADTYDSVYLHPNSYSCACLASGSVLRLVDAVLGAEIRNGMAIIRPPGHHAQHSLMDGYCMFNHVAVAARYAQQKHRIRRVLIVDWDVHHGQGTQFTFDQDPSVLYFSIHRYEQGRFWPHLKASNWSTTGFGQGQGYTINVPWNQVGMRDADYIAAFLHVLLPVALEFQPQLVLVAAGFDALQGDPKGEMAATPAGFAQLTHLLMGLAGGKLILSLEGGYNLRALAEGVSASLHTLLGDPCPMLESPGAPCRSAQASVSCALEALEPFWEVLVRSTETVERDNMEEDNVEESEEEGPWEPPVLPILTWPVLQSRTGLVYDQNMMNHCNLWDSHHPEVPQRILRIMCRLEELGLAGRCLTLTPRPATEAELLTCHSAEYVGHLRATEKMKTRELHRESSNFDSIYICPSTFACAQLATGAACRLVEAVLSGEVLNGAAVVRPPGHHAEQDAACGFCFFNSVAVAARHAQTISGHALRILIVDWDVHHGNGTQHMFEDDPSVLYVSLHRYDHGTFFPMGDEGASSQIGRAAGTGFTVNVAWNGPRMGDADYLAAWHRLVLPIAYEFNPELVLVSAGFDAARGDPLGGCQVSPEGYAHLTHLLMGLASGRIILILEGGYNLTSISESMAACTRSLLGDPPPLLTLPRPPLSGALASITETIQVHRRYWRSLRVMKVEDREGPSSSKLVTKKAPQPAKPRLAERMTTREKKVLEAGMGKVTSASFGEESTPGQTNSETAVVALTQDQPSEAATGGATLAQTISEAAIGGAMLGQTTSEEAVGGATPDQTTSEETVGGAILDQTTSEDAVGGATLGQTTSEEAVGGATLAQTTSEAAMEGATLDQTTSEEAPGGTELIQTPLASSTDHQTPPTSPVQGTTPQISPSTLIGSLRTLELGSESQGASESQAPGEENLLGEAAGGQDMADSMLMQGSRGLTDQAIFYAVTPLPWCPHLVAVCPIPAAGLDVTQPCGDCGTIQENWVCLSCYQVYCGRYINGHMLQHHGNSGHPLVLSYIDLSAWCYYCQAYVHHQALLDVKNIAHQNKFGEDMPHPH
The experiment in a line: HDAC enzyme assays (selectivity). As to conditions: HDAC6 vs class I HDACs. Format: biochemical. As for the experimental part: Compounds for testing were diluted in DMSO to 50 fold the final concentration and a ten point three fold dilution series was made. The compounds were diluted in assay buffer (50 mM HEPES, pH 7.4, 100 mM KCl, 0.001% Tween-20, 0.05% BSA, 20 μM TCEP) to 6 fold their final concentration. The HDAC enzymes (purchased from BPS Biosciences) were diluted to 1.5 fold their final concentration in assay buffer. The tripeptide substrate and trypsin at 0.05 μM final concentration were diluted in assay buffer at 6 fold their final concentration. The final enzyme concentrations used in these assays were 3.3 ng/ml (HDAC1), 0.2 ng/ml (HDAC2), 0.08 ng/ml (HDAC3) and 2 ng/ml (HDAC6). […] Five μl of compound and 20 μl of enzyme were added to wells of a black, opaque 384 well plate in duplicate. Enzyme and compound were incubated together at room temperature for 10 minutes. Five μl of substrate was added to each well, the plate was shaken for 60 seconds and placed into a Victor 2 microtiter plate reader. The development of fluorescence was monitored for 60 min and the linear rate of the reaction was calculated. The IC50 was determined using Graph Pad Prism by a four parameter curve fit.

Assay [1] relates to Mino mantle cell lymphoma cells. The experiment in a line: Cell cycle inhibition, Mino cells. Format: cell-based. As to conditions: 4 days, Compound A or B 2 μM, Lenalidomide 2 μM, Pomalidomide 1 μM.
For assay [2], the system named is Jeko1 mantle cell lymphoma cells. The experiment in a line: Cell cycle inhibition, Jeko1 cells. Format: cell-based. As to conditions: 4 days, Compound B 2 μM, Lenalidomide 2 μM, Pomalidomide 1 μM.

Regarding `O=C(CCCCCCNC(=O)c1cnc(N(c2ccccc2)c2ccccc2)nc1)NO` [Compound A, 2-(diphenylamino)-N-(7-(hydroxyamino)-7-oxoheptyl)pyrimidine-5-carboxamide], the “selectivity for HDAC6 over class I HDAC's” value at HDAC6 was “approximately 11 fold”. The cell cycle progression result in assay [1] is reported as “decreased cell cycle progression”.
Regarding `O=C(CCCCCCNC(=O)c1cnc(N(c2ccccc2)c2ccccc2Cl)nc1)NO` [Compound B, 2-((2-chlorophenyl)(phenyl)amino)-N-(7-(hydroxyamino)-7-oxoheptyl)pyrimidine-5-carboxamide], the cell cycle progression result in assay [2] and in assay [1] was “decreased cell cycle progression” throughout.
On to `O=C(NO)c1cnc(NC2(c3cccc(F)c3)CCCCC2)nc1` [Compound C, 2-((1-(3-fluorophenyl)cyclohexyl)amino)-N-hydroxypyrimidine-5-carboxamide], for which, on HDAC6, the “selectivity for HDAC6 over class I HDAC's” value is “more than 300 fold”.
